# According to patent US5843959A, “Methods and bicyclic polyamine compositions for the treatment of inflammation” (University of Florida Research Foundation, Inc., priority 1997, dated 1998):
# What was measured:
# [1] = test system: phenylquinone (P.Q.) writhing; experiment: Analgesic activity, phenylquinone writhing; type: in vivo, mouse (ICR)
# Procedure: The method of Siegmund et al [Proc. Soc. Exp. Biol. Med., Vol. 95, pages 729-731 (1957)] was used to measure the analgesic activity of PIP[4,4,4]. Groups of 10 male ICR mice weighing 22±2 g were employed. Various doses of test compound, dissolved in a vehicle of distilled water, were administered intraperitoneally. The control group received vehicle alone. […] The mean±SEM number of writhes in each treatment group was calculated and unpaired Student's t test was applied for comparison between vehicle and treated groups. Differences were considered significant when P<0.05.
# [2] = Solubility in the vehicle; type: physicochemical; details: distilled water
# Procedure: PIP[4,4,4] was obtained as described above. Distilled water was used as the vehicle for in vivo testing. […] Commercially obtained chemicals used were indomethacin and hydrocortisone (Sigma, St. Louis, Mo., U.S.A.), aspirin (Miles Labs., Elkart, IN, U.S.A.), carrageenan (Tokyo Kasei Industry Co., Ltd.), Mycobacterium tuberculosis (Difco Labs., Detroit, Mich., U.S.A.) and carboxymethyl-cellulose (Wako Pure Chemical Industries, Osaka, Japan). Doses of all compounds used were calculated on the basis of the weight of the salt.
structure (smiles),measurement,setting,value
"C(CCNCC1CCNCC1)CNCC1CCNCC1 [PIP[4,4,4], N,N'-Bis(4-piperidinylmethyl)-1,4-butanediamine]",% Inhibition (writhing),[1]; 100 mg/kg i.p.,79%
same,# Writhes (X ± SEM),"[1]; 100 mg/kg i.p., P.Q. 2 mg/kg i.p. 30 min post dosing, **P < 0.01",3 ± 1 # WRITHES
same,Analgesic activity (in words),"[1]; i.p., compared with vehicle control",exhibited analgesic activity
same,Solubility in the vehicle,[2],completely soluble
